This note sets out measurements from patent publication US20230117324A1, “OXAZINE MONOACYLGLYCEROL LIPASE (MAGL) INHIBITORS” (Hoffmann-La Roche Inc., priority 2018, published 2023).

The assay deals with T1, MAGL (Homo sapiens, UniProt Q99685).
T1 sequence (Q99685 1-303): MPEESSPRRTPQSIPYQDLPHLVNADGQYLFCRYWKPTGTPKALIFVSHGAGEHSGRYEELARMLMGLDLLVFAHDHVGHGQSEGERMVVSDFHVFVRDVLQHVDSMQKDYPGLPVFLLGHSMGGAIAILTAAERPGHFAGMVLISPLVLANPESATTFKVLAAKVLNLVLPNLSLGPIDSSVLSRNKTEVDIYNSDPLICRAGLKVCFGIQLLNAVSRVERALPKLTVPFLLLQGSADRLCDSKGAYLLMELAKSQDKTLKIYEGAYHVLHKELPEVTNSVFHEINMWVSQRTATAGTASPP
In words: MAGL inhibition, 2-AG assay (hydrolysis of 2-arachidonoylglycerol, arachidonic acid by mass spectrometry). It is filed as biochemical. As to conditions: 2-AG assay (footnote [b]). The procedure, abridged:
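Hydrolysis of 8 μM 2-arachidonoylglycerol by […] was run for 30 min at RT after a 15 min compound preincubation, in Tris/EDTA/Tween buffer. Test compounds spanned […]. The product was measured by online SPE-MS/MS (transitions 303.1→259.1 and 311.1→267.0), and activity was derived from the arachidonic acid/d8-arachidonic acid signal ratio.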
Usually IC50 stands for the midpoint of a concentration-inhibition curve. The low end stands for greater potency, the high end for weaker potency. As to `COc1ccc(C(c2ccc(F)cc2)C2CCN(C(=O)N3CC[C@@H]4OCC(=O)N[C@@H]4C3)CC2)cc1OC` (single isomer, unassigned) [Example 88, (4aR,8aS)-6-(4-((R or S)-(3,4-Dimethoxyphenyl)(4-fluorophenyl)methyl)piperidine-1-carbonyl)hexahydro-2H-pyrido[4,3-b][1,4]oxazin-3(4H)-one], the midpoint of inhibition, the IC50, lay at 0.0022 µM.
The compound `O=C1CO[C@H]2CCN(C(=O)N3CCC(C(OCC(F)(F)F)c4ccc(F)cc4)CC3)C[C@H]2N1` (single isomer, unassigned) [Example 57, (4aR,8aS)-6-(4-((R or S)-(4-Fluorophenyl)(2,2,2-trifluoroethoxy)methyl)piperidine-1-carbonyl)hexahydro-2H-pyrido[4,3-b][1,4]oxazin-3(4H)-one] registered an IC50 of 0.029 µM.
In the case of `O=C1CO[C@H]2CCN(C(=O)N3CC(c4ccc(CCCF)cc4)C3)C[C@H]2N1` [Example 247, (4aR,8aS)-6-[3-[4-(3-Fluoropropyl)phenyl]azetidine-1-carbonyl]-4,4a,5,7,8,8a-hexahydropyrido[4,3-b][1,4]oxazin-3-one], the 50% inhibitory concentration (IC50) came out at 0.006 µM.
The same measure for `COc1ccc(C(c2ccccc2)C2CCN(C(=O)N3CC[C@@H]4OCC(=O)N[C@@H]4C3)CC2)cc1OC` (single isomer, unassigned) [Example 74, (4aR,8aS)-6-(4-((R or S)-(3,4-Dimethoxyphenyl)(phenyl)methyl)piperidine-1-carbonyl)hexahydro-2H-pyrido[4,3-b][1,4]oxazin-3(4H)-one]: 0.002 µM; for `O=C1CO[C@H]2CCN(C(=O)N3CC(c4ccc(CC(F)(F)F)cc4)C3)C[C@H]2N1` [Example 187, (4aR,8aS)-6-[3-[4-(2,2,2-Trifluoroethyl)phenyl]azetidine-1-carbonyl]-4,4a,5,7,8,8a-hexahydropyrido[4,3-b][1,4]oxazin-3-one]: 0.001 µM.
The compound `CC1CN(C(=O)N2CC[C@@H]3OCC(=O)N[C@@H]3C2)CC[C@@H]1c1ccc(C(C)(F)F)cn1` (single isomer, unassigned) [Example 45, (4aR,8aS)-6-((4R or 4S)-(5-(1,1-Difluoroethyl)pyridin-2-yl)-3-methylpiperidine-1-carbonyl)hexahydro-2H-pyrido[4,3-b][1,4]oxazin-3(4H)-one] gave an IC50 of 3.3 µM.
Under `O=C1CO[C@H]2CCN(C(=O)N3CC(c4ccc(N5CC(F)C5)cc4)C3)C[C@H]2N1` [Example 201, (4aR,8aS)-6-(3-(4-(3-Fluoroazetidin-1-yl)phenyl)azetidine-1-carbonyl)hexahydro-2H-pyrido[4,3-b][1,4]oxazin-3(4H)-one] stands 0.101 µM; under `CC1CN(C(=O)N2CC[C@@H]3OCC(=O)N[C@@H]3C2)CCC1c1ccc(C(C)(F)F)cn1` (single isomer, unassigned) [Example 43, (4aR,8aS)-6-((3R or 3S)-4-(5-(1,1-Difluoroethyl)pyridin-2-yl)-3-methylpiperidine-1-carbonyl)hexahydro-2H-pyrido[4,3-b][1,4]oxazin-3(4H)-one], 0.156 µM.
Under `Cc1ccc(C(c2ccccc2)C2CCN(C(=O)N3CC[C@@H]4OCC(=O)N[C@@H]4C3)CC2)cc1` (single isomer, unassigned) [Example 84, (4aR,8aS)-6-[4-[(S or R)-Phenyl(p-tolyl)methyl]piperidine-1-carbonyl]-4,4a,5,7,8,8a-hexahydropyrido[4,3-b][1,4]oxazin-3-one] stands 0.0001 µM; under `O=C1CO[C@H]2CCN(C(=O)N3CCC(C(c4ccccc4)c4ccc(F)cc4)CC3)C[C@H]2N1` (single isomer, unassigned) [Example 68, (4aR,8aS)-6-(4-((S or R)-(4-Fluorophenyl)(phenyl)methyl)piperidine-1-carbonyl)hexahydro-2H-pyrido[4,3-b][1,4]oxazin-3(4H)-one], 0.0002 µM; under `CS(=O)(=O)c1cccc(C(c2ccccn2)C2CCN(C(=O)N3CC[C@@H]4OCC(=O)N[C@@H]4C3)CC2)c1` (single isomer, unassigned) [Example 189, (4aR,8aS)-6-[4-[(R or S)-(3-methylsulfonylphenyl)-(2-pyridyl)methyl]piperidine-1-carbonyl]-4,4a,5,7,8,8a-hexahydropyrido[4,3-b][1,4]oxazin-3-one], 0.068 µM.
The same measure for `O=C1CO[C@H]2CCN(C(=O)N3CC(c4ccc(N5CC(F)(F)C5)c(Cl)c4)C3)C[C@H]2N1` [Example 226, (4aR,8aS)-6-(3-(3-Chloro-4-(3,3-difluoroazetidin-1-yl)phenyl)azetidine-1-carbonyl)hexahydro-2H-pyrido[4,3-b][1,4]oxazin-3(4H)-one]: 0.019 µM; for `O=C1CO[C@H]2CCN(C(=O)N3CC(c4ccc(C5COC5)cc4)C3)C[C@H]2N1` [Example 225, (4aR,8aS)-6-[3-[4-(Oxetan-3-yl)phenyl]azetidine-1-carbonyl]-4,4a,5,7,8,8a-hexahydropyrido[4,3-b][1,4]oxazin-3-one]: 0.1 µM.
The compound `O=C1CO[C@H]2CCN(C(=O)N3CC(c4ccc(C(F)(F)F)cc4F)C3)C[C@H]2N1` [Example 210, (4aR,8aS)-6-(3-(2-Fluoro-4-(trifluoromethyl)phenyl)azetidine-1-carbonyl)hexahydro-2H-pyrido[4,3-b][1,4]oxazin-3(4H)-one] gave a half-inhibitory concentration (IC50) of 0.112 µM.
As for `CC(OC1CCN(C(=O)N2CC[C@@H]3OCC(=O)N[C@@H]3C2)CC1)c1ccc(C(F)(F)F)cc1` (stereo partly drawn) [Example 93, (4aR,8aS)-6-[4-[1-[4-(Trifluoromethyl)phenyl]ethoxy]piperidine-1-carbonyl]-4,4a,5,7,8,8a-hexahydropyrido [4,3-b][1,4]oxazin-3-one], the IC50 turned out to be 0.073 µM.
Turning to `O=C1CO[C@H]2CCN(C(=O)N3CCC(C(c4ccc(F)cc4)c4ccc(OCCF)cc4)CC3)C[C@H]2N1` (single isomer, unassigned) [Example 100, (4aR,8aS)-6-(4-((R or S)-(4-(2-Fluoroethoxy)phenyl)(4-fluorophenyl)methyl)piperidine-1-carbonyl)hexahydro-2H-pyrido[4,3-b][1,4]oxazin-3(4H)-one], half-maximal inhibition (IC50) was put at 0.004 µM.
In the case of `O=C1CO[C@H]2CCN(C(=O)N3CC(c4ccc(N5CCC(C(F)(F)F)C5)cn4)C3)C[C@H]2N1` (single isomer, unassigned) [Example 271, (4aR,8aS)-6-(3-(5-((R or S)-3-(Trifluoromethyl)pyrrolidin-1-yl)pyridin-2-yl)azetidine-1-carbonyl)hexahydro-2H-pyrido[4,3-b][1,4]oxazin-3(4H)-one], the IC50 worked out at 0.022 µM.
The same measure for `CCCOc1ccc(C2CN(C(=O)N3CC[C@@H]4OCC(=O)N[C@@H]4C3)C2)cc1` [Example 258, (4aR,8aS)-6-[3-(4-Propoxyphenyl)azetidine-1-carbonyl]-4,4a,5,7,8,8a-hexahydropyrido[4,3-b][1,4]oxazin-3-one]: 0.005 µM; for `CC(C)(C)OC(=O)NCCOCCOCCC(=O)NCCOc1cccc(C(c2ccccc2)C2CCN(C(=O)N3CC[C@@H]4OCC(=O)N[C@@H]4C3)CC2)c1` (stereo partly drawn) [Example 256, tert-Butyl N-[2-[2-[3-[2-[3-[[1-[(4aR,8aS)-3-oxo-4,4a,5,7,8,8a-hexahydropyrido[4,3-b][1,4]oxazine-6-carbonyl]-4-piperidyl]-phenyl-methyl]phenoxy]ethylamino]-3-oxo-propoxy]ethoxy]ethyl]carbamate]: 0.002 µM; for `CC(OC1CN(c2ccc(C3CN(C(=O)N4CC[C@@H]5OCC(=O)N[C@@H]5C4)C3)cc2)C1)C(F)(F)F` (stereo partly drawn) [Example 138, (4aR,8aS)-6-(3-(4-(3-((1,1,1-Trifluoropropan-2-yl)oxy)azetidin-1-yl)phenyl)azetidine-1-carbonyl)hexahydro-2H-pyrido[4,3-b][1,4]oxazin-3(4H)-one]: 0.001 µM.
The compound `O=C1CO[C@H]2CCN(C(=O)N3CC(c4ccc(N5CC(F)(F)C5)cc4)C3)C[C@H]2N1` [Example 156, (4aR,8aS)-6-(3-(4-(3,3-Difluoroazetidin-1-yl)phenyl)azetidine-1-carbonyl)hexahydro-2H-pyrido[4,3-b][1,4]oxazin-3(4H)-one] yielded an IC50 of 0.024 µM.
Under `O=C1CO[C@H]2CCN(C(=O)N3CC(c4ccn(-c5ccc(Cl)cc5Cl)n4)C3)C[C@H]2N1` [Example 257, (4aR,8aS)-6-[3-[1-(2,4-Dichlorophenyl)pyrazol-3-yl]azetidine-1-carbonyl]-4,4a,5,7,8,8a-hexahydropyrido[4,3-b][1,4]oxazin-3-one] stands 0.233 µM.
On to `O=C1CO[C@H]2CCN(C(=O)N3CC(c4ccc(N5CC(OCC(F)(F)F)C5)cc4)C3)C[C@H]2N1` [Example 172, (4aR,8aS)-6-(3-(4-(3-(2,2,2-Trifluoroethoxy)azetidin-1-yl)phenyl)azetidine-1-carbonyl)hexahydro-2H-pyrido[4,3-b][1,4]oxazin-3(4H)-one], for which the IC50 came out at 0.004 µM.
The same measure for `CC(C)(C)[Si](C)(C)OCCn1cc(C2CCN(C(=O)N3CC[C@@H]4OCC(=O)NC4C3)CC2)c2cc(Cl)ccc21` (stereo in doubt) [Example 268, (4aS,8aS)-6-[4-[1-[2-[tert-Butyl(dimethyl)silyl]oxyethyl]-5-chloro-indol-3-yl]piperidine-1-carbonyl]-4,4a,5,7,8,8a-hexahydropyrido[4,3-b][1,4]oxazin-3-one]: 0.67 µM.
